According to US20110105515A1, “TARGETING THE ONCOPROTEIN NUCLEOPHOSMIN” (President and Fellows of Harvard College, priority 2007, published 2011):

What was measured:
UO-31 = UO-31 (Renal Cancer), 48 hours, SRB
PC-3 = PC-3 (Prostate Cancer), 48 hours, SRB
CCRF-CEM = CCRF-CEM (Leukemia), 48 hours, SRB
M14 = M14 (Melanoma), 48 hours, SRB
MCF7 = MCF7 (Breast Cancer), 48 hours, SRB
RXF 393 = RXF 393 (Renal Cancer), 48 hours, SRB
OVCAR-8 = OVCAR-8 (Ovarian Cancer), 48 hours, SRB
OVCAR-4 = OVCAR-4 (Ovarian Cancer), 48 hours, SRB
UACC-257 = UACC-257 (Melanoma), 48 hours, SRB
SR = SR (Leukemia), 48 hours, SRB
ACHN = ACHN (Renal Cancer), 48 hours, SRB
MOLT-4 = MOLT-4 (Leukemia), 48 hours, SRB
U251 = U251 (CNS Cancer), 48 hours, SRB
SN12C = SN12C (Renal Cancer), 48 hours, SRB
NCI-H226 = NCI-H226 (Non-Small Cell Lung Cancer), 48 hours, SRB
NCI-H522 = NCI-H522 (Non-Small Cell Lung Cancer), 48 hours, SRB
K-562 = K-562 (Leukemia), 48 hours, SRB
SK-OV-3 = SK-OV-3 (Ovarian Cancer), 48 hours, SRB
T-47D = T-47D (Breast Cancer), 48 hours, SRB
BT-549 = BT-549 (Breast Cancer), 48 hours, SRB
TK-10 = TK-10 (Renal Cancer), 48 hours, SRB
MDA-MB-468 = MDA-MB-468 (Breast Cancer), 48 hours, SRB
SK-MEL-5 = SK-MEL-5 (Melanoma), 48 hours, SRB
HCC-2998 = HCC-2998 (Colon Cancer), 48 hours, SRB
SF-539 = SF-539 (CNS Cancer), 48 hours, SRB
NCI/ADR-RES = NCI/ADR-RES (Breast Cancer), 48 hours, SRB

Which results are given for `CN(C)c1cccc2c(S(=O)(=O)NCCCCCCCCCCOc3ccc4c(c3)[N+]([O-])=C3C4=C[C@@]45NC(=O)C6(CCCN6C4=O)CC5C3(C)C)cccc12` (stereo partly drawn) [Dansyl Analogue]?
GI50 (UO-31): 0.48 µM; TGI (UO-31): 2.08 µM; CC50 (UO-31; read-out: LC50): 6.48 µM; GI50 (PC-3): 0.334 µM; TGI (PC-3): 1.82 µM; CC50 (PC-3; read-out: LC50): 41.7 µM; GI50 (CCRF-CEM): 0.246 µM; TGI (CCRF-CEM): >100 µM; CC50 (CCRF-CEM; read-out: LC50): > 100 µM; GI50 (M14): 0.423 µM; TGI (M14): 2.03 µM; CC50 (M14; read-out: LC50): 13.6 µM; GI50 (MCF7): 0.232 µM; TGI (MCF7): 0.724 µM; CC50 (MCF7; read-out: LC50): 2.61 µM; GI50 (RXF 393): 0.611 µM; TGI (RXF 393): 5.92 µM; CC50 (RXF 393; read-out: LC50): 44.4 µM; GI50 (OVCAR-8): 0.759 µM; TGI (OVCAR-8): 11 µM; CC50 (OVCAR-8; read-out: LC50): > 100 µM; GI50 (OVCAR-4): 0.348 µM; TGI (OVCAR-4): 7.42 µM; CC50 (OVCAR-4; read-out: LC50): 32.2 µM; GI50 (UACC-257): 1.02 µM; TGI (UACC-257): 2.81 µM; CC50 (UACC-257; read-out: LC50): 7.74 µM; GI50 (SR): 0.371 µM; TGI (SR): 1.94 µM; CC50 (SR; read-out: LC50): 23.7 µM; GI50 (ACHN): 0.736 µM; TGI (ACHN): 2.7 µM; CC50 (ACHN; read-out: LC50): 8.56 µM; GI50 (MOLT-4): 0.276 µM; CC50 (MOLT-4; read-out: LC50): > 100 µM; GI50 (U251): 0.175 µM; TGI (U251): 0.334 µM; CC50 (U251; read-out: LC50): 0.64 µM; GI50 (SN12C): 0.401 µM; TGI (SN12C): 6.81 µM; CC50 (SN12C; read-out: LC50): 31.7 µM; GI50 (NCI-H226): 1.03 µM; TGI (NCI-H226): 3.03 µM; CC50 (NCI-H226; read-out: LC50): 8.93 µM; GI50 (NCI-H522): 0.26 µM; TGI (NCI-H522): 0.857 µM; CC50 (NCI-H522; read-out: LC50): 8.89 µM; TGI (K-562): 64.4 µM; GI50 (SK-OV-3): 1.65 µM; TGI (SK-OV-3): 4.13 µM; CC50 (SK-OV-3; read-out: LC50): 10.8 µM; GI50 (T-47D): 0.152 µM; TGI (T-47D): 0.572 µM; CC50 (T-47D; read-out: LC50): 3.14 µM; GI50 (BT-549): 0.515 µM; TGI (BT-549): 6.73 µM; CC50 (BT-549; read-out: LC50): > 100 µM; GI50 (TK-10): 0.716 µM; TGI (TK-10): 2.81 µM; CC50 (TK-10; read-out: LC50): 9.66 µM; GI50 (MDA-MB-468): 0.202 µM; TGI (MDA-MB-468): 0.436 µM; CC50 (MDA-MB-468; read-out: LC50): 0.941 µM; GI50 (SK-MEL-5): 0.373 µM; TGI (SK-MEL-5): 1.47 µM; CC50 (SK-MEL-5; read-out: LC50): 3.84 µM; GI50 (HCC-2998): 0.946 µM; TGI (HCC-2998): 2.32 µM; CC50 (HCC-2998; read-out: LC50): 5.49 µM; GI50 (SF-539): 0.215 µM; TGI (SF-539): 0.545 µM; CC50 (SF-539; read-out: LC50): 1.89 µM; GI50 (NCI/ADR-RES): 28.2 µM; TGI (NCI/ADR-RES): >100 µM; CC50 (NCI/ADR-RES; read-out: LC50): > 100 µM
